Patent US8569336B2, “Compounds for the treatment of inflammatory disorders” (priority 2008, dated 2013)
Read-outs that look alike come from different tables or passages of the source.

Tests used:
[1] = tested on: TNF-α production from human whole blood; assay: Inhibition of TNF-α production from human whole blood (hWBA), LPS stimulated, ELISA; assay type: cell-based; conditions: Homo sapiens, TNF-α by ELISA, read-out: hWBA (IC50)
[2] = molecular target: T1, purified catalytic domain of recombinant human TACE (rhTACEc) (Homo sapiens, UniProt P78536, N452Q/S266A); assay: TACE kinetic assay: cleavage of internally quenched peptide substrate TNF-FRET 2 (Ki); assay type: biochemical; conditions: TNF-FRET 2 substrate, read-out: Ki
T1 construct: 6xHis (C); made in house; host or cells: baculovirus/Hi5 insect cells
T1 sequence (P78536 215-477 S266A/N452Q): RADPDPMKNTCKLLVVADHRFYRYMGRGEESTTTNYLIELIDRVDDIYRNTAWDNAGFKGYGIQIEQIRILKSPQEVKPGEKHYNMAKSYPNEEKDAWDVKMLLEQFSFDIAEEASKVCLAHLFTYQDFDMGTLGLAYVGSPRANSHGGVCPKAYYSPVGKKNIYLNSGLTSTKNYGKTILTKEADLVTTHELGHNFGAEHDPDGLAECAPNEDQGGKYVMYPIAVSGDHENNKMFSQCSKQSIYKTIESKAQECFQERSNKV

[3] = Area under the curve determinations of plasma levels in rats (rrAUC), oral 10 mg/kg; assay type: in vivo; conditions: rat, read-out: RR AUC (rapid rat AUC, rrAUC)
[4] = 3.5 h, human whole blood diluted 1:1, LPS stimulated, 3.5 h
[5] = LPS-stimulated human whole blood
[6] = human whole blood diluted 1:1, LPS stimulated
[7] = plasma, blood collected 0.5-6 h post-dosing

Structure (SMILES)	IC50 [1, 4]	Ki [2]	AUC ([3]; plasma 0.5-6 h post-dosing)	IC50 [1, 5]	AUC ([3]; plasma 0.5-6 h)	IC50 [1, 6]	AUC [3, 7]
COc1ccc2c(c1)C(=O)N(C[C@@]1(c3cc4cc(-c5ccncc5)ncc4o3)NC(=O)NC1=O)C2 [Compound 2238]	628 nM	0.889 nM	4.86 µM·h				
CC[C@@H]1CN(c2ccc3oc([C@]4(CN5Cc6ccc(OC)cc6C5=O)NC(=O)NC4=O)cc3n2)CCN1 [Compound 2124]	270 nM	1.09 nM	0.014 µM·h				
COc1ccc2c(c1F)C(=O)N(C[C@@]1(c3cc4nc(N5CCC(OC)(OC)CC5)ccc4o3)NC(=O)NC1=O)C2 [Compound 1715]		2.79 nM		480 nM	0.199 µM·h		
COc1ccc2c(c1)C(=O)N(C[C@@]1(c3cc4nc(N5C(=O)CCC5C)ccc4o3)NC(=O)NC1=O)C2 (stereo partly drawn) [Compound 2161]	186 nM	0.54 nM	4.79 µM·h				
COc1ccc2c(c1F)C(=O)N(C[C@@]1(c3cc4nc(C)c(F)cc4o3)NC(=O)NC1=O)C2 [Compound 1312]		0.74 nM		911 nM	38.3 µM·h		
COc1ccc2c(c1)C(=O)N(C[C@@]1(c3cc4cnc(-c5cccc(C#N)c5)cc4o3)NC(=O)NC1=O)C2 [Compound 2489]		0.799 nM				8420 nM	10.6 µM·h
COc1ccc2c(c1)C(=O)N(C[C@@]1(c3cc4cc(-c5ccccc5F)ncc4o3)NC(=O)NC1=O)C2 [Compound 2240]	3640 nM	0.714 nM	12.8 µM·h				
COc1ccc2c(c1F)C(=O)N(C[C@@]1(c3cc4nc(N5CCN(C6CC6)CC5)ccc4o3)NC(=O)NC1=O)C2 [Compound 1711]		0.5 nM		113 nM	5.09 µM·h		

Compounds with a lower Ki [2], results first:

IC50 [1, 4]	Ki [2]	AUC ([3]; plasma 0.5-6 h post-dosing)	IC50 [1, 5]	AUC ([3]; plasma 0.5-6 h)	IC50 [1, 6]	AUC [3, 7]	Structure (SMILES)
	0.45 nM				189 nM	0.181 µM·h	COc1ccc2c(c1)C(=O)N(C[C@@]1(c3cc4c5c(ccc4o3)C(=O)NC5)NC(=O)NC1=O)C2 [Compound 2504]
218 nM	0.433 nM	0.391 µM·h					COc1ccc2c(c1)C(=O)N(C[C@@]1(c3cc4ccc(N)nc4o3)NC(=O)NC1=O)C2 [Compound 2250]
1060 nM	0.456 nM	6.03 µM·h					COc1ccc2c(c1)C(=O)N(C[C@@]1(c3cc4cc(-c5ccnc(N)n5)ccc4o3)NC(=O)NC1=O)C2 [Compound 2245]
	0.32 nM				115 nM	0.104 µM·h	COc1ccc2c(c1)C(=O)N(C[C@@]1(c3cc4ccc(C(=O)NCCN(C)C)cc4o3)NC(=O)NC1=O)C2 [Compound 2412]
